Experimental data: publication PMC7705112, “A Novel, Broad-Acting Peptide Inhibitor of Double-Stranded DNA Virus Gene Expression and Replication” (Frontiers in Microbiology, 2020)
Entries after “also recorded” stand apart in the source; their conditions may differ. Read-outs that look alike come from different tables or passages of the source. Peptide text beside a SMILES is read from it.

What was measured:
NIH/3T3 cells = assay: Cytotoxicity, MultiTox-Glo Multiplex; assay type: cell-based; settings: 72 h; Figure 4B, triplicates
Description: (§1) Vero, MRC-5, and CV-1 cells were cultured in Dulbecco’s Modified Eagle Medium (DMEM; ThermoFisher, Waltham, MA, United States) and Jurkat cells were cultured in RPMI 1640 medium containing 10% fetal calf serum, 100 U/ml penicillin, and 0.1 mg/ml streptomycin (ThermoFisher). HEK293 and NIH/3T3 cells were adapted to growth in CO2-independent medium supplemented with 10% fetal calf serum, 2 mM glutamine, and 1% antibiotic-antimycotic (ThermoFisher) and cultivated in a humidified atmosphere at 37°C. […] Viability was analyzed using CellTiter-Glo® 2.0 Assay according to the manufacturer’s protocol (Promega). […] Cytotoxicity was analyzed using MultiTox-Glo Multiplex Cytotoxicity Assay according to the manufacturer’s protocol (Promega).

[1] = test system: RSV RNA (nucleocapsid protein gene); assay: RSV RNA by real-time PCR; assay type: cell-based, Respiratory syncytial virus
Description: Lysates from infected cells were examined for the presence of RSV RNA by real-time PCR using ViroReal® RSV (RTGM20V; Ingenetix GmbH, Austria) detecting the nucleocapsid protein gene of RSV and normalized to GAPDH mRNA. Calculated EC50 was 0.8 µM for TAT-I24 with 80% inhibition at the highest concentration (20 µM). Ribavirin was included as control.

VZV transcripts = VZV transcripts by real-time PCR; assay type: cell-based, varicella zoster virus; settings: lysates of infected cells, normalized to GAPDH mRNA; Figure S8; read-out: EC50, reduction of VZV transcripts
Description: VZV transcripts were analysed from lysates of infected cells by real-time PCR using ViroReal® VZV (RTGM20V; Ingenetix GmbH, Austria) and normalized to GAPDH mRNA.

[2] = test system: HSV-1 F, HSV-1 703, HSV-1 601; assay type: cell-based, herpes simplex virus; settings: for EC50: Figure 8A, triplicate wells
adenovirus 5 = assay type: cell-based
GAPDH mRNA, MRC-5 cells = assay: GAPDH mRNA in cells of the HCMV replicon assay; settings: at the highest concentration of 20 μM; no effect below
Baculovirus-Luc = settings: for EC50: read-out: EC50, inhibition of reporter gene expression
HEK293 cells [3] = assay: Morphology of HEK293 cells; assay type: cell-based
HEK293 cells [4] = assay: Cell viability, CellTiter-Glo 2.0; assay type: cell-based; settings: 96 h incubation; Figure 2B, triplicate wells
Description: as §1

adenovirus type 5 = assay type: cell-based
Description: Luciferase from cell lysates was recorded 24 hours after infection. Results shown are luciferase levels expressed as % of control from duplicate wells. Luciferase was detected using Luciferase Assay System as described in Materials & Methods of the main article.

[5] = test system: vaccinia virus wild-type (strain Western Reserve); settings: Figure 9B
Varicella zoster virus = assay: VZV cytopathic effect; settings: human fibroblasts, pre-treated, infected 1 h, three days, microscopy
[6] = test system: firefly luciferase reporter gene under control of the CMV promoter, HEK293 cells; assay: Luciferase expression from transfected CMV promoter plasmid (Superfect); assay type: cell-based; settings: HEK293, Figure 1D, TAT (47–57) alone
Description: Briefly, for one well of a 48-well plate, 100 ng DNA and 1 μl Superfect reagent were mixed by pipetting followed by addition of 12.5 μl of serum‐ and antibiotic-free medium. After brief vortexing and further incubation at room temperature for 15 min, 112.5 μl medium containing 10% fetal calf serum and antibiotics were added. For transfection in the presence of peptides, a transfection mixture of DNA, Superfect reagent, and serum-and antibiotic-free medium were prepared for the required number of wells. From this mixture, 25 μl aliquots were made and 0.5 μl peptides (10 mM each) added to each aliquot, vortexed briefly, and incubated for 15 min at room temperature. Then, 225 μl of medium containing 10% fetal calf serum was added and 125 μl applied per well of duplicate wells. For other types of multi-well plates, volumes were adapted according to the growth area of the wells.

influenza A PR8 = assay: Influenza A plaque-formation assay; settings: MDCK cells, three days, at the concentrations used
HSV-1 UL30 gene = assay: HSV-1 UL30 transcripts by real-time PCR; settings: cells from the replicon assay; Figures 8B, S6C
RSV (strain A2) = assay: RSV cytopathic effect; assay type: cell-based, Respiratory syncytial virus A; settings: human Hep2 cells, pre-treated, infected 2 hrs at 37°C, 3 days, microscopy
Description: Respiratory syncytial virus (RSV): Human Hep2 cells were pre-treated with peptides and infected with cell-free RSV Stock (strain A2) for 2 hrs at 37°C. Medium was then removed and unabsorbed virus removed by washing. Medium containing peptide dilutions was then added to cells.

TZM-bl reporter cells = assay: Reporter gene expression in non-infected TZM-bl cells; settings: 48 hours after treatment; Figure S7
MCMV S-mCherry-SCP = MCMV S-mCherry-SCP replication, microscopy; assay type: cell-based, murine cytomegalovirus; settings: NIH/3T3, various concentrations, 72 h; Figure 4C
Description: For analysis of MCMV replication, NIH/3T3 cells were seeded at a density of 2 × 10^4 cells/well of ibiTreat eight-well chambers (ibidi, Germany). On the next day, cells were treated with peptides and infected with murine CMV S-mCherry-SCP ([Bosse et al., 2012]) at a MOI 0.2 for 72 h before fixation with 5% formaldehyde and staining of nuclei with DAPI. Microscopic examination was performed using a Live Cell Video Microscope (Leica Microsystems).

HCMV TB40 = assay: Replicon assay (AAV-GLuc-3B), MRC-5 cells, HCMV; assay type: cell-based, human cytomegalovirus; settings: MRC-5, 3 days; Figure 7A, TAT (48–60)
adenovirus 4 = assay: Replicon assay (AAV-GLuc-3B), A549 cells, adenovirus 4; assay type: cell-based; settings: A549, MOI 1.0, at the concentrations used; Figures 3D, S3A
murine CMV (MCMV) = assay type: cell-based, murine cytomegalovirus; settings: NIH/3T3, MOI 0.5, 72 h; Figures 4A, S4A
Description: NIH/3T3 cells were seeded at a density of 2 × 10^4 cells/well of a 96-well plate and allowed to attach overnight. On the next day, medium was removed and replaced by medium containing peptide dilutions. Then, murine CMV (MCMV) expressing firefly luciferase ([Trilling et al., 2011]) was added to the cells at a MOI of 0.5 with aid of centrifugal enhancement at 800 × g for a total of 30 min.
Virus adsorption was performed by addition of MCMV expressing luciferase at a MOI of 0.5 with centrifugal enhancement at +4°C and further incubation at +4°C for 60 min before removal of unabsorbed virus and three times washing of cells with cold medium. […] After 72 h incubation at 37°C, luciferase levels were determined from cell lysates as described above.
In another setting, NIH/3T3 cells were preincubated with TAT-I24 at concentrations of 1 and 10 μM for 1, 3, and 6 h followed by removal of peptide and 3x washing with medium. […] After 72 h, luciferase levels were determined from cell lysates as described above.
A, NIH/3T3 cells were seeded at a density of 2 x 10^4 cells/well of a 96-well plate and treated on the next day with increasing concentrations of I24 or TAT-I24 and infected with MCMV (MOI = 0.5). After 72 hrs, luciferase was determined from cell lysates. Results shown are luciferase levels expressed as % of control from duplicate wells. […] Plaque formation was determined after 5 days. […]

adenovirus 19a/64 = assay: Replicon assay (AAV-GLuc-3B), A549 cells, adenovirus 19a/64; assay type: cell-based; settings: A549, MOI 1.0, at the concentrations used; Figures 3D, S3A

**Q.** Which results are given for `CC(C)C[C@H](NC(=O)[C@H](CS)NC(=O)[C@H](CCC(N)=O)NC(=O)[C@@H]1CCCN1C(=O)[C@@H]1CCCN1C(=O)[C@H](CCCNC(=N)N)NC(=O)[C@H](CCCNC(=N)N)NC(=O)[C@H](CCCNC(=N)N)NC(=O)[C@H](CCC(N)=O)NC(=O)[C@H](CCCNC(=N)N)NC(=O)[C@H](CCCNC(=N)N)NC(=O)[C@H](CCCCN)NC(=O)[C@H](CCCCN)NC(=O)[C@H](CCCNC(=N)N)NC(=O)CN)C(=O)N[C@@H](C)C(=O)N[C@@H](Cc1ccccc1)C(=O)N[C@@H](Cc1ccc(O)cc1)C(=O)N[C@@H](C)C(=O)N[C@@H](CS)C(=O)N[C@@H](Cc1ccccc1)C(=O)N[C@@H](CS)C(=O)O` [TAT-I24] (H-GRKKRRQRRRPPQCLAFYACFC-OH)?
**A.** effect on mock infected CV-1 cells (CV-1 cells): No effect; effects on CV-1 cell attachment (CV-1 cells; at higher dosages (20 and 6.6 μM)): some effects; cytotoxic effects (viable and dead cells) (NIH/3T3 cells): No cytotoxic effects; inhibition of RSV RNA ([1]; at the highest concentration (20 µM)): 80%; EC50 ([1]; lysates from infected cells, normalized to GAPDH mRNA, Figure S9): 800 nM; EC50 (VZV transcripts): 3300 nM; EC50 ([2]; HSV1 601 (aciclovir-sensitive isolate)): 370 nM; EC50 ([2]; HSV1 703 (aciclovir-resistant isolate)): 910 nM; EC50 ([2]; HSV-1 F): 1930 nM; EC50 (adenovirus 5; A549, MOI 1.0, Gaussia luciferase after 24 h, Figure 3D, triplicate wells, read-out: EC50, inhibition of replication): 3250 nM; GAPDH mRNA levels (GAPDH mRNA, MRC-5 cells): some reduction; inhibition of reporter gene expression (Baculovirus-Luc; HEK293, peptide added together with baculovirus, 24 h, Figure 2A): > 95%; EC50 (Baculovirus-Luc; HEK293, MOI 5, peptide added together with baculovirus, 24 h, Figure 2A, duplicate wells): 170 nM; concentrations at which some morphological changes were observed (HEK293 cells [3]): > 10 μM; effects on HEK293 cell viability (HEK293 cells [4]): no effects; EC50 (adenovirus type 5; HEK293, adenovirus-GFP-Luc, 24 h, single value of Figure 3A (duplicate wells), read-out: EC50, inhibition of reporter gene expression): 3140 nM; EC50 ([5]; read-out: EC50, inhibition of VACV wt replication, CV-1, MOI 0.2, 1 h preincubation, 24 h, TCID50, two independent experiments): 790 nM

**Q.** With `Nc1nc2c(ncn2COCCO)c(=O)[nH]1` [ACV, aciclovir] as the molecule, how does the “sensitivity of isolate to aciclovir” value ([2]; HSV-1 isolate 703, Figure S6A) read?
**A.** resistance

**Q.** What about the CPE (Varicella zoster virus) of the same molecule?
**A.** 4 µM

**Q.** Which “effects on HEK293 cell viability” value (HEK293 cells [4]) does the source give for `CC(C)C[C@H](NC(=O)[C@@H](N)CS)C(=O)N[C@@H](C)C(=O)N[C@@H](Cc1ccccc1)C(=O)N[C@@H](Cc1ccc(O)cc1)C(=O)N[C@@H](C)C(=O)N[C@@H](CS)C(=O)N[C@@H](Cc1ccccc1)C(=O)N[C@@H](CS)C(=O)O` [I24] (H-CLAFYACFC-OH) here?
**A.** no effects

**Q.** Which “effect on reporter gene expression” value [6] does the source give for YGRKKRRQRRR [TAT (47–57)] here?
**A.** ineffective

**Q.** And the “effect on luciferase levels” value (Baculovirus-Luc; HEK293, 24 h, Figure 2A (TAT = TAT (47–57)))?
**A.** did not affect

**Q.** Which EC50 (Baculovirus-Luc; HEK293, Figure 2E, triplicate wells) does the source give for `CC(C)C[C@H](NC(=O)[C@H](CS)NC(=O)[C@H](Cc1ccc(O)cc1)NC(=O)[C@@H]1CCCN1C(=O)[C@H](CC(=O)O)NC(=O)[C@H](CCC(=O)O)NC(=O)[C@@H](NC(=O)[C@H](CCCCN)NC(=O)[C@H](CCCNC(=N)N)NC(=O)[C@H](CCCCN)NC(=O)[C@H](CCCCN)NC(=O)[C@H](CCCCN)NC(=O)[C@@H]1CCCN1)C(C)C)C(=O)N[C@@H](C)C(=O)N[C@@H](Cc1ccccc1)C(=O)N[C@@H](Cc1ccc(O)cc1)C(=O)N[C@@H](C)C(=O)N[C@@H](CS)C(=O)N[C@@H](Cc1ccccc1)C(=O)N[C@@H](CS)C(=O)O` [SV40 NLS-I24] (H-PKKKRKVEDPYCLAFYACFC-OH) here?
**A.** 1000 nM

**Q.** What does the source list for GRKKRRQRRRPPQ [TAT]?
**A.** cytotoxic effects (viable and dead cells) (NIH/3T3 cells): No cytotoxic effects; Plaque assay (influenza A PR8): no inhibition; UL30 transcript levels normalized to 18S rRNA (HSV-1 UL30 gene): No effect; also recorded: does not affect; effect on replication (adenovirus 5; A549, Figure S3A): no effect; CPE (RSV (strain A2)): no inhibition; effect on reporter gene expression in the absence of virus (TZM-bl reporter cells): No inhibition; cells producing virus particles (MCMV S-mCherry-SCP): cells producing virus particles were seen; effect on HCMV replication (HCMV TB40): no effect; effect on replication (adenovirus 4): no effect; effects on HEK293 cell viability (HEK293 cells [4]): no effects; effect on luciferase expression (murine CMV (MCMV)): only partially decreased; effect on reporter gene expression (adenovirus type 5; HEK293, 24 h, Figure 3A, TAT (48–60)): ineffective; effect on replication (adenovirus 19a/64): no effect; effect on VACV wt replication ([5]; CV-1): no effect; CPE (Varicella zoster virus): no inhibition

**Q.** With YGRKKRRQRRRC [TAT-C] as the molecule, how does the “inhibition of luciferase expression” value (Baculovirus-Luc; HEK293, at the highest tested concentration of 20 μM, Figure 2E) read?
**A.** only partial inhibition
